Measured values: patent publication US7851474B2, “Dipiperazinyl ketones and related analogues” (Neurogen Corporation, priority 2005, dated 2010)

Biological target: T1, chimeric human H3 receptor (Homo sapiens, UniProt Q9Y5N1, E19D)
T1 construct: made in house; host or cells: Sf9 insect cells (baculovirus infection); P2 membrane preparation
Assay: Chimeric human H3 receptor GTP binding assay (agonist-stimulated GTP-gamma35S binding, Example 7)
Assay type: biochemical
Settings: assay of Example 7; "*" in Ki of Table II; read-out: Ki
Outline: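 IC50 values come from non-linear regression of dose-response curves of filter-bound GTP-gamma^35S, counted by scintillation. Membranes were from infected Sf9 cells carrying receptor plus G-protein subunits, 35 μg/tube, with 10 μM GDP present.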

T1 sequence (Q9Y5N1 with tags, fused parts or gaps E19D): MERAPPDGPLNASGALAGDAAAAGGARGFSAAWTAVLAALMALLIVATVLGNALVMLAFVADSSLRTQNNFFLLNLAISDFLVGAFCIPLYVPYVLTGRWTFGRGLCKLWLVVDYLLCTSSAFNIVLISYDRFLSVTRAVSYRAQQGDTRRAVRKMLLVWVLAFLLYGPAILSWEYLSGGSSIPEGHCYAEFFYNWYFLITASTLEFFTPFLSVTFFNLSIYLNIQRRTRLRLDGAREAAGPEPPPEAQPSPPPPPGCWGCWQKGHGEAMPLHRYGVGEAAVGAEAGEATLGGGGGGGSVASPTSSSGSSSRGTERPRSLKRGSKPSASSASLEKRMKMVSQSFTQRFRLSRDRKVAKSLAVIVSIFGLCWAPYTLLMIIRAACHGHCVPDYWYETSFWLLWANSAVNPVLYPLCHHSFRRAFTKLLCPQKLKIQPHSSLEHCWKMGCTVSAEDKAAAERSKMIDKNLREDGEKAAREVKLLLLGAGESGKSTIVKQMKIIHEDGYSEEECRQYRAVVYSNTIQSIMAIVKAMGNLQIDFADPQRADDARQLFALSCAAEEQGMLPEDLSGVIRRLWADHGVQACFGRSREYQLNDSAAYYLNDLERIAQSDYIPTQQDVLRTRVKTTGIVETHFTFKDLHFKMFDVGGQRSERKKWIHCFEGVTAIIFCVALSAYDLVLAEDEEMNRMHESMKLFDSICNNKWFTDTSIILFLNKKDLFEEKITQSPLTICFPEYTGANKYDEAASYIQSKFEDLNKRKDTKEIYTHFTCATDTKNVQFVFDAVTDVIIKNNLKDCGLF

| SMILES | Ki [µM] |
| --- | --- |
| CC(C)CCNC(=O)c1ccc(N2CCN(CC(=O)N3CCN(C4CCC4)CC3)CC2)nc1 [Compound 1179, 6-{4-[2-(4-cyclobutylpiperazin-1-yl)-2-oxoethyl]piperazin-1-yl}-N-(3-methylbutyl)nicotinamide] | < 1 |
| O=C(NCC(F)(F)F)c1ccc(N2CCN(CC(=O)N3CCN(C4CCC4)CC3)CC2)nc1 [Compound 1180, 6-{4-[2-(4-cyclobutylpiperazin-1-yl)-2-oxoethyl]piperazin-1-yl}-N-(2,2,2-trifluoroethyl) nicotinamide] | < 1 |
| O=C(NC1CCCCC1)c1ccc(N2CCN(CC(=O)N3CCN(C4CCC4)CC3)CC2)nc1 [Compound 1181, 6-{4-[2-(4-cyclobutylpiperazin-1-yl)-2-oxoethyl]piperazin-1-yl}-N-cyclohexylnicotinamide] | < 1 |
| CC(C)NC(=O)c1ccc(N2CCN(CC(=O)N3CCN(C4CCC4)CC3)CC2)nc1 [Compound 1182, 6-{4-[2-(4-cyclobutylpiperazin-1-yl)-2-oxoethyl]piperazin-1-yl}-N-isopropylnicotinamide] | < 1 |
| O=C(NC1CCCC1)c1ccc(N2CCN(CC(=O)N3CCN(C4CCC4)CC3)CC2)nc1 [Compound 1183, 6-{4-[2-(4-cyclobutylpiperazin-1-yl)-2-oxoethyl]piperazin-1-yl}-N-cyclopentylnicotinamide] | < 1 |
| CCCC(C)NC(=O)c1ccc(N2CCN(CC(=O)N3CCN(C4CCC4)CC3)CC2)nc1 (stereo not shown) [Compound 1184, 6-{4-[2-(4-cyclobutylpiperazin-1-yl)-2-oxoethyl]piperazin-1-yl}-N-(1-methylbutyl)nicotinamide] | < 1 |
| O=C(NC1CCCCCC1)c1ccc(N2CCN(CC(=O)N3CCN(C4CCC4)CC3)CC2)nc1 [Compound 1185, 6-{4-[2-(4-cyclobutylpiperazin-1-yl)-2-oxoethyl]piperazin-1-yl}-N-cycloheptylnicotinamide] | < 1 |
| O=C(NCC1CCCCC1)c1ccc(N2CCN(CC(=O)N3CCN(C4CCC4)CC3)CC2)nc1 [Compound 1186, 6-{4-[2-(4-cyclobutylpiperazin-1-yl)-2-oxoethyl]piperazin-1-yl}-N-(cyclohexylmethyl) nicotinamide] | < 1 |
| CC(C)(C)CNC(=O)c1ccc(N2CCN(CC(=O)N3CCN(C4CCC4)CC3)CC2)nc1 [Compound 1187, 6-{4-[2-(4-cyclobutylpiperazin-1-yl)-2-oxoethyl]piperazin-1-yl}-N-(2,2-dimethylpropyl) nicotinamide] | < 1 |
| CCC(CC)CNC(=O)c1ccc(N2CCN(CC(=O)N3CCN(C4CCC4)CC3)CC2)nc1 [Compound 1188, 6-{4-[2-(4-cyclobutylpiperazin-1-yl)-2-oxoethyl]piperazin-1-yl}-N-(2-ethylbutyl)nicotinamide] | < 1 |
| N#Cc1ccc(N2CCN(CC(=O)N3CCN(C4CCC4)CC3)CC2)nn1 [Compound 1189, 6-{4-[2-(4-cyclobutylpiperazin-1-yl)-2-oxoethyl]piperazin-1-yl}pyridazine-3-carbonitrile] | < 1 |
| O=C(CN1CCC2(CC1)C(=O)NCN2c1ccccc1)N1CCN(C2CCC2)CC1 [Compound 1190] | < 1 |
| CC(C)N1CN(c2ccccc2)C2(CCN(CC(=O)N3CCN(C4CCC4)CC3)CC2)C1=O [Compound 1191] | < 1 |
| CC(C)OC1=NCN(c2ccccc2)C12CCN(CC(=O)N1CCN(C3CCC3)CC1)CC2 [Compound 1192, 8-[2-(4-cyclobutylpiperazin-1-yl)-2-oxoethyl]-4-isopropoxy-1-phenyl-1,3,8-triazaspiro[4.5]dec-3-ene] | < 1 |
| O=C(OCc1ccccc1)c1cccc(N2CCN(CC(=O)N3CCN(C4CCC4)CC3)CC2)c1 [Compound 1193, benzyl 3-{4-[2-(4-cyclobutylpiperazin-1-yl)-2-oxoethyl]piperazin-1-yl}benzoate] | < 1 |
| O=C(c1ccc(N2CCN(CC(=O)N3CCN(C4CCC4)CC3)CC2)cc1)C1CCC1 [Compound 1194, cyclobutyl(4-{4-[2-(4-cyclobutylpiperazin-1-yl)-2-oxoethyl]piperazin-1-yl}phenyl)methanone] | < 1 |
| CCOC(=O)c1cccc(-c2cnc(N3CCN(CC(=O)N4CCN(C5CCC5)CC4)CC3)cn2)c1 [Compound 1195, ethyl 3-(5-{4-[2-(4-cyclobutylpiperazin-1-yl)-2-oxoethyl]piperazin-1-yl}pyrazin-2-yl)benzoate] | < 1 |

Further lines, results first:

| Ki [µM] | SMILES |
| --- | --- |
| < 1 | CCN(C(=O)c1ccc(N2CCN(CC(=O)N3CCN(C4CCC4)CC3)CC2)nc1)C(C)C [Compound 1168, 6-{4-[2-(4-cyclobutylpiperazin-1-yl)-2-oxoethyl]piperazin-1-yl}-N-ethyl-N-isopropylnicotinamide] |
| < 1 | CC(C)N(C)C(=O)c1ccc(N2CCN(CC(=O)N3CCN(C4CCC4)CC3)CC2)nc1 [Compound 1169, 6-{4-[2-(4-cyclobutylpiperazin-1-yl)-2-oxoethyl]piperazin-1-yl}-N-isopropyl-N-methylnicotinamide] |
| < 1 | CN(C(=O)c1ccc(N2CCN(CC(=O)N3CCN(C4CCC4)CC3)CC2)nc1)C1CCCCC1 [Compound 1170, 6-{4-[2-(4-cyclobutylpiperazin-1-yl)-2-oxoethyl]piperazin-1-yl}-N-cyclohexyl-N-methylnicotinamide] |
| < 1 | CCN(C(=O)c1ccc(N2CCN(CC(=O)N3CCN(C4CCC4)CC3)CC2)nc1)C1CCCCC1 [Compound 1171, 6-{4-[2-(4-cyclobutylpiperazin-1-yl)-2-oxoethyl]piperazin-1-yl}-N-cyclohexyl-N-ethylnicotinamide] |
| < 1 | COCCN(C(=O)c1ccc(N2CCN(CC(=O)N3CCN(C4CCC4)CC3)CC2)nc1)C(C)C [Compound 1172, 6-{4-[2-(4-cyclobutylpiperazin-1-yl)-2-oxoethyl]piperazin-1-yl}-N-isopropyl-N-(2-methoxyethyl)nicotinamide] |
| < 1 | CCC(C)CNC(=O)c1ccc(N2CCN(CC(=O)N3CCN(C4CCC4)CC3)CC2)nc1 (stereo not shown) [Compound 1173, 6-{4-[2-(4-cyclobutylpiperazin-1-yl)-2-oxoethyl]piperazin-1-yl}-N-(2-methylbutyl)nicotinamide] |
| < 1 | CCNC(=O)c1ccc(N2CCN(CC(=O)N3CCN(C4CCC4)CC3)CC2)nc1 [Compound 1174, 6-{4-[2-(4-cyclobutylpiperazin-1-yl)-2-oxoethyl]piperazin-1-yl}-N-ethylnicotinamide] |
| < 1 | CCCNC(=O)c1ccc(N2CCN(CC(=O)N3CCN(C4CCC4)CC3)CC2)nc1 [Compound 1175, 6-{4-[2-(4-cyclobutylpiperazin-1-yl)-2-oxoethyl]piperazin-1-yl}-N-propylnicotinamide] |
| < 1 | O=C(NCC1CC1)c1ccc(N2CCN(CC(=O)N3CCN(C4CCC4)CC3)CC2)nc1 [Compound 1176, 6-{4-[2-(4-cyclobutylpiperazin-1-yl)-2-oxoethyl]piperazin-1-yl}-N-(cyclopropylmethyl) nicotinamide] |
| < 1 | CC(C)CNC(=O)c1ccc(N2CCN(CC(=O)N3CCN(C4CCC4)CC3)CC2)nc1 [Compound 1177, 6-{4-[2-(4-cyclobutylpiperazin-1-yl)-2-oxoethyl]piperazin-1-yl}-N-isobutylnicotinamide] |
| < 1 | CCCCCNC(=O)c1ccc(N2CCN(CC(=O)N3CCN(C4CCC4)CC3)CC2)nc1 [Compound 1178, 6-{4-[2-(4-cyclobutylpiperazin-1-yl)-2-oxoethyl]piperazin-1-yl}-N-pentylnicotinamide] |
